Values after ≈ are worked out from the molar mass of the structure shown. Where two headings read alike, the source gives them in different places.
How the values were obtained:
MAO-B [1] = biological target: T1, MAO-B (Homo sapiens, UniProt P27338); test: MAO-B inhibition (recombinant enzyme, benzylamine substrate); assay type: biochemical; conditions: for remaining activity at 10 µM: read-out: Residual Activity (%) MAO-B; for IC50: reference compounds after preincubation with enzymes for 30 min; for SI (selectivity index): for MAO-B as compared with MAO-A
T1 sequence (P27338 1-520): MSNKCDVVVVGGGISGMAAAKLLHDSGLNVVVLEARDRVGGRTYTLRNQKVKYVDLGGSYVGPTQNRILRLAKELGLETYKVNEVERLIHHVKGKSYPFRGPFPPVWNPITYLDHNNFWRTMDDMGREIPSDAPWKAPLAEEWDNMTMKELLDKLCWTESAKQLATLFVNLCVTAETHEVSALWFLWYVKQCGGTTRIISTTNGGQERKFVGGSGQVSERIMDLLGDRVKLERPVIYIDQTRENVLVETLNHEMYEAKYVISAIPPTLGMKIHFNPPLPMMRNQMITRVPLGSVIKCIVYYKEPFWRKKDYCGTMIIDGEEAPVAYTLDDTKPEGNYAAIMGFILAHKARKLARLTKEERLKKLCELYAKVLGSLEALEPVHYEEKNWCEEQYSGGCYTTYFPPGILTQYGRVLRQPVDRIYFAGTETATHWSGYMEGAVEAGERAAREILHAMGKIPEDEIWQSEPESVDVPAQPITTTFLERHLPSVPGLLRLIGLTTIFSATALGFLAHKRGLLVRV
Protocol: (§1) MAO events were assessed with recombinant MAO-A and MAO-B, as well as the substrates kynuramine (0.06 mM) and benzylamine (0.3 mM). […] The IC50 value of CH5 for BACE-1 was also analyzed.
(§2) The inhibitory actions of the six molecules against MAO-A, MAO-B, and BACE-1 were first tested at 10 µM. Initially, the IC50 values of the compounds for MAOs were calculated.

recombinant MAO-A = biological target: T2, recombinant MAO-A (Homo sapiens, UniProt P21397); test: MAO-A inhibition (recombinant enzyme, kynuramine substrate); assay type: biochemical; conditions: for remaining activity at 10 µM: read-out: Residual Activity (%) MAO-A; for IC50: reference compounds after preincubation with enzymes for 30 min
T2 sequence (P21397 1-527): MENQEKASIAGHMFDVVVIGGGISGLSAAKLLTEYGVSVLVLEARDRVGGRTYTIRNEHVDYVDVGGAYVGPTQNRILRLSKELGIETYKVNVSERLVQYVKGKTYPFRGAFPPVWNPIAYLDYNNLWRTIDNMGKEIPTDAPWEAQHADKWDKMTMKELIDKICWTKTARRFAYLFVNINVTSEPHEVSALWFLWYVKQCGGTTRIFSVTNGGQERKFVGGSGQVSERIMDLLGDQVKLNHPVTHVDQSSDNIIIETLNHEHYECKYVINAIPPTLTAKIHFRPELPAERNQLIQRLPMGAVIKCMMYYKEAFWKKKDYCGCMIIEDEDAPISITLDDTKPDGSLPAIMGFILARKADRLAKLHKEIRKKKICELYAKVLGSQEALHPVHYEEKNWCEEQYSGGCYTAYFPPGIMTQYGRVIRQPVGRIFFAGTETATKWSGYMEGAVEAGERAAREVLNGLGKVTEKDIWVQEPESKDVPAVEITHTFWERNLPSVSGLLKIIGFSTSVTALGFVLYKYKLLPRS
Protocol: as §1, §2

β-secretase (BACE-1) = biological target: T3, β-secretase (BACE-1) (Homo sapiens, UniProt P56817); test: BACE-1 inhibition (β-secretase assay kit, fluorescence); assay type: biochemical; conditions: for remaining activity at 10 µM: read-out: Residual Activity (%) BACE-1; for IC50: reference compounds after preincubation with enzymes for 30 min
T3 construct: purchased
Protocol: as §1, §2

[2] = Parallel artificial membrane permeability assay (PAMPA) for BBB permeability
Text: (§6) The CNS bioavailability of the molecules was confirmed by a parallel artificial membrane permeability assay (PAMPA) by Di et al. [61].

Vero cells = test: ROS assay in H2O2-treated Vero cells; assay type: cell-based, African Green Monkey; conditions: Vero cells treated with H2O2; compounds at IC50 conc. (CH4 198.5 µg/mL, CH5 126.4 µg/mL)
Text: (§3) The lead molecules CH4 and CH5 in the current series were further evaluated for their cytotoxic nature and ROS scavenging ability by the previously reported procedure (Supplementary Material).
Our next attempt was to study the effect of CH4 and CH5 on inhibiting the excess reactive oxygen species (ROS) involved in the pathogenesis of neurodegenerative diseases. This ROS causes neuronal damage via oxidative damage in the brain during neurodegenerative diseases. We examined the intracellular ROS generation on Vero cell cultures after exposure to exogenous H2O2. […] Based on this observation, it is understood that the disruption of the balance between pro-oxidant and antioxidant levels can be retained by CH4 and CH5 at IC50 concentrations. […]
(§4) h. The end point was determined by the purple precipitation which was clearly seen under an inverted microscope. At the end, the medium along with MTT (220 µL) were used for the aspiration of the wells and later washed with 1X PBS (200 µL). […] The absorbance at 570 nm was measured using a micro plate reader (Thermo Fisher Scientific, USA). The IC50 value and the percentage cell viability was calculated using GraphPad Prism 8.0 software (USA). […]
(§5) DMEM medium and incubated at 37°C for 24 h. […] After the incubation period, the cells were treated with 100 µM/mL of 30% H2O2 and the production of ROS was evaluated immediately by fluorescence imaging system (ZOE, BIO-

[3] = In vitro toxicity, MTT cell viability assay; assay type: cell-based; conditions: African green monkey; for IC50 at 48 h: Vero cells (African green monkey kidney cell line), 1 to 500 µg/mL; for viability at 48 h: Vero cells (kidney cell line), read-out: Percentage of viable cells
Protocol: as §3
An in vitro toxicity evaluation of CH4 and CH5 was carried out using an MTT assay. We used the African Green Monkey kidney cell line (Vero) as a valuable in vitro model for basal toxicity studies. To check the toxicity of the tested compounds, the Vero cell line was incubated with different concentrations of CH4 and CH5 (1 to 500 µg/mL), and the relative cell viability was measured after 48 h. […] The result of the cell viability assay was represented as a dose–response curve using the GraphPad Prism 6.0 software (USA). […] The reduction in cell number and also the membrane damage were very evident in treatment with CH4 and CH5 at IC50 and higher concentrations, as analyzed by phase-contrast microscope. These two experiments strongly support that CH4 and CH5 are one hundred times safer than the effective concentration of one micromolar (Figure 3C and Figure 4C). […]
1.2. Cytotoxicity Studies
The cell line of Vero (African green monkey kidney cells) was procured from NCCS, Pune and were grown in liquid medium (DMEM) containing, 100 ug/mL penicillin, 100 µg/mL streptomycin, and 10% Fetal Bovine Serum (FBS) and preserved under an atmosphere of 5% CO2 at 37 °C. The CH4 and CH5 sample was assayed for in vitro cytotoxicity by MTT assay using the cultured Vero cells. Briefly, the cultured Vero cells were produced by cell dissociation with trypsin (trypsinization), collectively in a 15 mL tube. At a density of 1×10^5 cells/mL cells/well (200 µL) the cells were plated for 24-48 hour at 37°C into 96-well tissue culture plate in DMEM medium containing 10 % FBS and 1% antibiotic solution. The wells were washed with sterile Phosphate buffered saline and further allowed to react with varying concen-trations of the CH4 and CH5 sample in a serum free DMEM medium. The samples were triplicated and the cells were kept for incubation at 37°C for 24 h in a humidified 5% CO2 incubator. MTT (20 µL of 5 mg/mL) was added in-to each well after the incubation and the cells were incubated for another 2–4 […]
as §4, with “microscope.” for “microscope. At the end, the medium along with MTT (220 µL) were used for the aspiration of the wells and later washed with 1X PBS (200 µL).”
as §5

MAO-B [4] = biological target: T1, MAO-B; test: MAO-B inhibitor reversibility analysis by dialysis; conditions: for Relative activity, dialyzed (AD): after dialysis; for Relative activity, dialyzed (AD) / Relative activity, undialyzed (AU): CH4 1.68 µM, CH5 0.92 µM, lazabemide […], pargyline 0.28 µM; for Reversibility of MAO-B inhibition: dialysis; for Relative activity, undialyzed (AU): preincubation 30 min
Protocol: Reversibility patterns were analyzed by comparing the activities of dialyzed (AD) and undialyzed (AU) samples [58].
The relative activities for undialyzed (AU) and dialyzed (AD) samples were compared to determine the reversibility patterns.

MAO-B [5] = biological target: T1, MAO-B; test: MAO-B kinetic study (Lineweaver–Burk and secondary plots); assay type: biochemical; conditions: for Type of MAO-B inhibition: Lineweaver–Burk plots; for Ki: secondary plots of slopes vs. inhibitor concentrations
Protocol: MAO events were assessed with recombinant MAO-A and MAO-B, as well as the substrates kynuramine (0.06 mM) and benzylamine (0.3 mM). The kinetics of MAO-B were analyzed under 2.4 × Km (i.e., 0.051 mM) of benzylamine. BACE-1 was measured using a β-secretase (BACE-1) assay kit at 320 nm for excitation and 405 nm for emission using a fluorescence spectrometer. […] The IC50 value of CH5 for BACE-1 was also analyzed.
The inhibitory actions of the six molecules against MAO-A, MAO-B, and BACE-1 were first tested at 10 µM. Initially, the IC50 values of the compounds for MAOs were calculated. At three inhibitory concentrations and five substrate concentrations, kinetic tests were conducted on CH4 and CH5, which inhibited MAO-B most potently.
Kinetic experiments were carried out at five concentrations of the substrates and three inhibitor concentrations.

[6] = PAMPA
Text: as §6

T3 sequence (P56817 46-501): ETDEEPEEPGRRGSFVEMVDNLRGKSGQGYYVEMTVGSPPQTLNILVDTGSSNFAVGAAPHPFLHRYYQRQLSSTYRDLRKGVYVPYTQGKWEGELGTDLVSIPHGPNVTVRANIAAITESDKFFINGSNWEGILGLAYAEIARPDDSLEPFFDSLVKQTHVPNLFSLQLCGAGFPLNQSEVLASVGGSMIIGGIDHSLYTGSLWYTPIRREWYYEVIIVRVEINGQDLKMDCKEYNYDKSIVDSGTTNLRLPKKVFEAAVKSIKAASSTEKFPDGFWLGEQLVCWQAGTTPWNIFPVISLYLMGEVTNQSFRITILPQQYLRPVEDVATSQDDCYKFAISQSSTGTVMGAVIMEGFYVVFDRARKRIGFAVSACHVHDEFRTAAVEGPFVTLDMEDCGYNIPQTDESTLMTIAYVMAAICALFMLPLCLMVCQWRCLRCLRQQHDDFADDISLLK

Structure (SMILES)	remaining activity at 10 µM (MAO-B [1]) [%]	remaining activity at 10 µM (recombinant MAO-A) [%]	remaining activity at 10 µM (β-secretase (BACE-1)) [%]	Papp [2] [×10⁻⁶ cm/s]	IC50 (MAO-B [1]) [µM]	SI (selectivity index) (MAO-B [1])	Effect on ROS levels (Vero cells)	IC50 (recombinant MAO-A) [µM]	IC50 at 48 h [3] [µg/mL]	viability at 48 h ([3]; up to 200 µg/mL) [%]	IC50 (β-secretase (BACE-1)) [µM]	Relative activity, dialyzed (AD) (MAO-B [4]) [%]	Reversibility of MAO-B inhibition (MAO-B [4])	Relative activity, undialyzed (AU) (MAO-B [4]) [%]	Type of MAO-B inhibition (MAO-B [5])	Ki (MAO-B [5]) [µM]	Prediction (CNS permeability class) [6]	viability at 48 h ([3]; up to 100 times the effective concentration) [%]
COc1cc(OC)c(C(=O)/C=C/c2ccc(Cl)cc2)c(OC)c1 [CH1, (E)-3-(4-chlorophenyl)-1-(2,4,6-trimethoxyphenyl)prop-2-en-1-one]	70.7 ± 2.16	90.1 ± 7.51	61.3 ± 0.078	13.2 ± 0.33	–	–	–	–	–	–	–	–	–	–	–	–	–	–
COc1ccc(C(=O)/C=C/c2ccc(F)cc2)c(OC)c1OC [CH6, (E)-3-(4-fluorophenyl)-1-(2,3,4-trimethoxyphenyl)prop-2-en-1-one]	19.6 ± 2.17	92.1 ± 0.75	66.7 ± 0.45	15.2 ± 0.26	4.17 ± 0.23	–	–	–	–	–	–	–	–	–	–	–	–	–
COc1ccc(C(=O)/C=C/c2ccc(Cl)cc2)c(OC)c1OC [CH4, (E)-3-(4-chlorophenyl)-1-(2,3,4-trimethoxyphenyl)prop-2-en-1-one]	–	63.7 ± 1.02	54.3 ± 2.2	14.6 ± 0.26	0.84 ± 0.025	15.1	decrease in ROS levels	12.7 ± 0.23	198 (≈ 596 µM)	> 90	13.6 ± 0.094	96.9	reversible inhibitors	30.9	competitive inhibitors	0.68 ± 0.17	–	–
CN1C(C(=O)Nc2ccccn2)=C(O)c2ccccc2S1(=O)=O [Piroxicam]	–	–	–	–	–	–	–	–	–	–	–	–	–	–	–	–	CNS+/−	–
COc1ccc(C(=O)/C=C/c2ccc(Br)cc2)c(OC)c1OC [CH5, (E)-3-(4-bromophenyl)-1-(2,3,4-trimethoxyphenyl)prop-2-en-1-one]	–	66.7 ± 3.96	64.3 ± 0.74	15.7 ± 0.22	0.46 ± 0.12	31.3	decrease in ROS levels	14.4 ± 1.1	126 (≈ 335 µM)	–	19.8 ± 0.12	73.8	reversible inhibitors	37.2	competitive inhibitors	0.31 ± 0.014	–	> 90
COc1cc(OC)c(C(=O)/C=C/c2ccc(Br)cc2)c(OC)c1 [CH2, (E)-3-(4-bromophenyl)-1-(2,4,6-trimethoxyphenyl)prop-2-en-1-one]	84.3 ± 3	92.4 ± 1.1	57.2 ± 0.46	14.1 ± 0.8	–	–	–	–	–	–	–	–	–	–	–	–	–	–
COc1cc(OC)c(C(=O)/C=C/c2ccc(F)cc2)c(OC)c1 [CH3, (E)-3-(4-fluorophenyl)-1-(2,4,6-trimethoxyphenyl)prop-2-en-1-one]	75.4 ± 0.27	94.9 ± 7.19	59.7 ± 0.077	15.3 ± 0.71	–	–	–	–	–	–	–	–	–	–	–	–	–	–
